The source of these data is patent publication US10221163B2 (priority 2015, dated 2019).

pIC50: −log10 of the molar value. Counter-ions that a name gives are not always drawn. Like-named read-outs stand apart in the source and are kept apart here.

Data set [1] concerns the target VIM-1 (Pseudomonas aeruginosa (strain ATCC 15692 / DSM 22644 / CIP 104116 / JCM 14847 / LMG 12228 / 1C / PRS 101 / PAO1), UniProt A0A0F7KYQ8). The experiment in a line: biochemical. The following applies: CCF2-FA substrate, 30 pM enzyme, 2 hours at 25° C. The essentials:
(§1)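 Two-hour, 25° C incubation of enzyme with inhibitor and CCF2-FA (7-hydroxycoumarin–cephalosporin–fluorescein). Fluorescence read-out; IC50 via 4-parameter fit.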

The test system of data set [2] is Pseudomonas aeruginosa efflux+ (MB9798), IMP-1. Type of data set: cell-based. Also noted: Concentration of metallo-β-lactamase inhibitor which restores susceptibility of efflux + (MB9798) strain to imipenem: unit not given here. Particulars: efflux+ MB9798; imipenem at 2 μg/mL; in the presence of a class A, C, D serine β-lactamase inhibitor closely related to relebactam. The method in brief:
(§2)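 Microbroth MIC tests in PAO1-background strains with fixed imipenem and/or ceftazidime, usually at the CLSI breakpoint, plus fixed class A/C β-lactamase inhibitor against AmpC. MBL inhibitor titrated; concentration restoring susceptibility recorded and compared as fold difference between efflux+ MB9798 and efflux− MB9799.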

In data set [3] the test system is Escherichia coli expressing NDM-1 (CLB30005, CLB30016). Type of data set: cell-based. Particulars: NDM-1 strain, with imipenem 1 μg/ml, 95% inhibition of growth. The method in brief:
(§3)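 Growth by absorbance after 22–24 h at 35°C defined the read-out, with imipenem fixed at 1 μg/ml alongside compound. Inocula came from overnight blood-agar colonies at 35°C, resuspended in saline and diluted 1:100 in 1.1×CAMHB.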

Data set [4] deals with Serratia marcescens expressing IMP-1 (CL5741). It counts as cell-based. The following applies: IMP-1 strain CL5741, with imipenem 1 μg/ml, 95% inhibition of growth. The essentials:
as §3

Data set [5] relates to Klebsiella pneumoniae expressing VIM-1 (IHMA599644). It counts as cell-based. The following applies: VIM-1 strain IHMA599644, with imipenem 1 μg/ml, 95% inhibition of growth. The essentials:
as §3

The subject of data set [6] is Pseudomonas aeruginosa MB9798 vs MB9799. The following applies: fold difference between efflux+ (MB9798) and efflux− (MB9799) strains, imipenem at 2 μg/mL. The essentials: as §2
The target in data set [7] is IMP-1 (Serratia marcescens, UniProt P52699). The experiment in a line: biochemical. It counts as biochemical. Particulars: fluorescence assay, CCF2-FA substrate, 2 pM enzyme, 2 hours at 25° C., read-out: IMP-1 IC50. The method in brief:
as §1

In data set [8] the target is NDM-1 (Klebsiella pneumoniae, UniProt C7C422). The experiment in a line: biochemical. Type of data set: biochemical. The following applies: fluorescence assay, CCF2-FA substrate, 1 pM enzyme, 2 hours at 25° C., read-out: NDM-1 IC50. The method in brief:
as §1

For data set [9], the system named is Pseudomonas aeruginosa efflux− (MB9799), IMP-1. It counts as cell-based. Particulars: efflux− MB9799, imipenem at 2 μg/mL, in the presence of a class A, C, D serine β-lactamase inhibitor closely related to relebactam. The essentials: as §2
[10] abbreviates: fluorescence assay, read-out: VIM-1 IC50.

Sequence of NDM-1 (C7C422 whole entry, looked up, species assumed): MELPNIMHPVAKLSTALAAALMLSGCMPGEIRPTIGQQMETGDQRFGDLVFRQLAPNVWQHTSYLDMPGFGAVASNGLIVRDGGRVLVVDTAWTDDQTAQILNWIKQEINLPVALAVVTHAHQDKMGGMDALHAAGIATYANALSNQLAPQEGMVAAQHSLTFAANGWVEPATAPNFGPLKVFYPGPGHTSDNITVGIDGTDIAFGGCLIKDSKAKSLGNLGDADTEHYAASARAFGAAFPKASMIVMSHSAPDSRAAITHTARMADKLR
Sequence of IMP-1 (P52699 whole entry, looked up, species assumed): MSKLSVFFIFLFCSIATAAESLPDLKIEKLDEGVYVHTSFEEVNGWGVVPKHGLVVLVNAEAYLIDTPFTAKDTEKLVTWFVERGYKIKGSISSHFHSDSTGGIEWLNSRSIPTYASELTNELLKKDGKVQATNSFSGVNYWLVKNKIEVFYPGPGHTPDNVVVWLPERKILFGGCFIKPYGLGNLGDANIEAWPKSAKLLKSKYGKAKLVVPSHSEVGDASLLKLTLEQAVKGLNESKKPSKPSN

Regarding `NS(=O)(=O)c1c(S(=O)(=O)NC[C@H]2CNCCN2)ccc(-c2cccc3[nH]cnc23)c1-c1nn[nH]n1` [Example 481, (R)-4-(1H-benzo[d]imidazol-4-yl)-N1-(piperazin-2-ylmethyl)-3-(1H-tetrazol-5-yl)benzene-1,2-disulfonamide], the pIC50 (in general, the negative decadic logarithm of the IC50, by convention in mol/L) is 9.92 in data set [1] (setting [10]), 9.60 in data set [7] and 10.34 in data set [8]. Also, the “Concentration of metallo-β-lactamase inhibitor which restores susceptibility of efflux + (MB9798) strain to imipenem” value in data set [2] was determined as 1.563. Besides, in [3], the “Escherichia coli MITC95” value was determined as 3.125 µM. For the same compound, the “Serratia marcescens MITC95” value in data set [4] is 1.563 µM. For the same compound, the “Klebsiella pneumoniae MITC95” value in [5] came out at 3.125 µM. In addition, in data set [6], the Efflux ratio was found to be 1.00. Further, the “Concentration of metallo-β-lactamase inhibitor which restores susceptibility of efflux − (MB9799) strain to imipenem” value in [9] was 1.563.
For the compound `NCCNCCNS(=O)(=O)c1ccc(-c2ccc(N)nc2)c(-c2nn[nH]n2)c1S(N)(=O)=O` [Example 482, N1-(2-(-2-amineoethylamino)ethyl)-4-(6-aminopyridin-3-yl)-3-(2H-tetrazol-5-yl)benzene-1,2-disulfonamide], the pIC50 was 9.48 in [1] (VIM-1 IC50, fluorescence assay); 8.94 in data set [7]; 9.27 in data set [8]. For the same compound, in data set [2], the “Concentration of metallo-β-lactamase inhibitor which restores susceptibility of efflux + (MB9798) strain to imipenem” value is on record as 1.563. Besides, in data set [3], the “Escherichia coli MITC95” value came to 0.1953 µM. Also, in [4], the “Serratia marcescens MITC95” value is 0.7813 µM. Besides, in data set [5], the “Klebsiella pneumoniae MITC95” value worked out at 1.563 µM. Also, in data set [6], the Efflux ratio is recorded as 2.00. Further, in data set [9], the “Concentration of metallo-β-lactamase inhibitor which restores susceptibility of efflux − (MB9799) strain to imipenem” value turned out to be 0.7813.
For `Nc1ccc(-c2ccc(S(=O)(=O)NC3CC(N)C3)c(S(N)(=O)=O)c2-c2nn[nH]n2)cn1` [Example 483, N1-((1R,3R)-3-aminocyclobutyl)-4-(6-aminopyridin-3-yl)-3-(2H-tetrazol-5-yl)benzene-1,2-disulfonamide], the pIC50 was 9.94 in [1] (read-out: VIM-1 IC50, fluorescence assay); 9.48 in [7]; 10.03 in data set [8]. In addition, the “Concentration of metallo-β-lactamase inhibitor which restores susceptibility of efflux + (MB9798) strain to imipenem” value in data set [2] was determined as 0.7813. Besides, the “Escherichia coli MITC95” value in data set [3] was 1.758 µM. In [4], the “Serratia marcescens MITC95” value stood at 0.7813 µM. Moreover, in [5], the “Klebsiella pneumoniae MITC95” value was 1.563 µM. Also, in [6], the Efflux ratio was 1.00. Further, in [9], the “Concentration of metallo-β-lactamase inhibitor which restores susceptibility of efflux − (MB9799) strain to imipenem” value came out at 0.7813.
Regarding `Nc1ccc(-c2ccc(S(=O)(=O)NC[C@H]3CCNC3)c(S(N)(=O)=O)c2-c2nn[nH]n2)cn1` [Example 484, (S)-4-(6-aminopyridin-3-yl)-N1-(pyrrolidin-3-ylmethyl)-3-(2H-tetrazol-5-yl)benzene-1,2-disulfonamide], the pIC50 is 9.88 in data set [1] (setting [10]), 9.60 in data set [7] and 9.99 in data set [8]. In addition, the “Concentration of metallo-β-lactamase inhibitor which restores susceptibility of efflux + (MB9798) strain to imipenem” value in [2] is recorded as 0.7813. Further, the “Escherichia coli MITC95” value in [3] was 0.1953 µM. In addition, in data set [4], the “Serratia marcescens MITC95” value is 0.3906 µM. Further, the “Klebsiella pneumoniae MITC95” value in data set [5] amounted to 3.125 µM. The Efflux ratio in [6] is 1.00. In addition, in [9], the “Concentration of metallo-β-lactamase inhibitor which restores susceptibility of efflux − (MB9799) strain to imipenem” value is reported as 0.7813.
Take `Nc1ccc(-c2ccc(S(=O)(=O)N3CCNCC3)c(S(N)(=O)=O)c2-c2nn[nH]n2)cn1` [Example 485, 3-(6-aminopyridin-3-yl)-6-(piperazin-1-ylsulfonyl)-2-(2H-tetrazol-5-yl)benzenesulfonamide]: the pIC50 in [1] (setting [10]) is 8.64; in [7], 8.45; in data set [8], 8.65. Further, the “Concentration of metallo-β-lactamase inhibitor which restores susceptibility of efflux + (MB9798) strain to imipenem” value in data set [2] amounted to 6.25. In data set [3], the “Escherichia coli MITC95” value came out at 0.1953 µM. The “Serratia marcescens MITC95” value in data set [4] was 0.7813 µM. In addition, the “Klebsiella pneumoniae MITC95” value in data set [5] turned out to be 1.563 µM. Moreover, the Efflux ratio in data set [6] stood at 8.00. In addition, the “Concentration of metallo-β-lactamase inhibitor which restores susceptibility of efflux − (MB9799) strain to imipenem” value in [9] was 0.7813.
Regarding `NC[C@@]1(NS(=O)(=O)c2ccc(-c3ccc(N)nc3)c(-c3nn[nH]n3)c2S(N)(=O)=O)CCNC1` [Example 487, (S)-N1-(3-(aminomethyl)pyrrolidin-3-yl)-4-(6-aminopyridin-3-yl)-3-(2H-tetrazol-5-yl)benzene-1,2-disulfonamide dihydrochloride], the pIC50 in [1] (VIM-1 IC50, fluorescence assay) is 9.28; in [7] (dihydrochloride), 9.10; in data set [8] (dihydrochloride), 9.56. Also, the “Concentration of metallo-β-lactamase inhibitor which restores susceptibility of efflux + (MB9798) strain to imipenem” value in data set [2] is reported as 1.563. Moreover, the “Escherichia coli MITC95” value in [3] (dihydrochloride) was 0.3906 µM. The “Serratia marcescens MITC95” value in data set [4] is 0.7813 µM. Besides, the “Klebsiella pneumoniae MITC95” value in data set [5] was determined as 1.563 µM. The Efflux ratio in data set [6] (dihydrochloride) amounted to 1.00. Also, the “Concentration of metallo-β-lactamase inhibitor which restores susceptibility of efflux − (MB9799) strain to imipenem” value in data set [9] (dihydrochloride) was 1.563.
With `Nc1ccc(-c2ccc(S(=O)(=O)NC[C@@H]3CCCN3)c(S(N)(=O)=O)c2-c2nn[nH]n2)cn1` [Example 488, (S)-4-(6-aminopyridin-3-yl)-N1-(pyrrolidin-2-ylmethyl)-3-(2H-tetrazol-5-yl)benzene-1,2-disulfonamide], the pIC50 in data set [1] (setting [10]) is 9.68; in data set [7], 9.45; in [8] it was 9.69. Also, the “Concentration of metallo-β-lactamase inhibitor which restores susceptibility of efflux + (MB9798) strain to imipenem” value in data set [2] was determined as 0.7813. Moreover, the “Escherichia coli MITC95” value in data set [3] came out at 0.1953 µM. In addition, the “Serratia marcescens MITC95” value in data set [4] is 0.1953 µM. The “Klebsiella pneumoniae MITC95” value in data set [5] worked out at 1.563 µM. Further, the Efflux ratio in data set [6] worked out at 1.00. The “Concentration of metallo-β-lactamase inhibitor which restores susceptibility of efflux − (MB9799) strain to imipenem” value in data set [9] is 0.7813.
Turning to `Nc1ccc(-c2ccc(S(=O)(=O)NC[C@H]3CCCN3)c(S(N)(=O)=O)c2-c2nn[nH]n2)cn1` [Example 489, (R)-4-(6-aminopyridin-3-yl)-N1-(pyrrolidin-2-ylmethyl)-3-(2H-tetrazol-5-yl)benzene-1,2-disulfonamide], the pIC50 is 9.57 in data set [1] (setting [10]), 9.25 in data set [7] and 9.61 in data set [8]. Besides, the “Concentration of metallo-β-lactamase inhibitor which restores susceptibility of efflux + (MB9798) strain to imipenem” value in data set [2] was 1.563. The “Escherichia coli MITC95” value in data set [3] is 0.3906 µM. The “Serratia marcescens MITC95” value in data set [4] is 0.3906 µM. The “Klebsiella pneumoniae MITC95” value in [5] was 1.563 µM. In data set [6], the Efflux ratio was determined as 2.00. Moreover, the “Concentration of metallo-β-lactamase inhibitor which restores susceptibility of efflux − (MB9799) strain to imipenem” value in [9] is on record as 0.7813.
As to `Nc1ccc(-c2ccc(S(=O)(=O)NC[C@@H]3CCNC3)c(S(N)(=O)=O)c2-c2nn[nH]n2)cn1` [Example 491, (R)-4-(6-aminopyridin-3-yl)-N1-(pyrrolidin-3-ylmethyl)-3-(2H-tetrazol-5-yl)benzene-1,2-disulfonamide], the pIC50 in data set [1] (setting [10]) was 9.88; in [7], 9.57; in data set [8], 10.03. Moreover, in data set [2], the “Concentration of metallo-β-lactamase inhibitor which restores susceptibility of efflux + (MB9798) strain to imipenem” value was found to be 0.7813. The “Escherichia coli MITC95” value in [3] came out at 0.1953 µM. Further, the “Serratia marcescens MITC95” value in data set [4] is 0.7813 µM. Further, the “Klebsiella pneumoniae MITC95” value in [5] was determined as 1.563 µM. In addition, the Efflux ratio in data set [6] amounted to 1.00. Besides, the “Concentration of metallo-β-lactamase inhibitor which restores susceptibility of efflux − (MB9799) strain to imipenem” value in [9] amounted to 0.7813.
